test: method code SF, from DOI: 10.1021/jm101405t, PMID: 21319751; conditions: pH 7.4

SMILES | logD
OCCc1ccc(OCc2ccc(-c3ccccc3)cc2)cc1 | 3.41
OCCc1ccc(OCc2ccccc2Oc2ccccc2)cc1 | 3.32
OCCc1ccc(OCc2ccccc2)cc1 | 1.96
OCCc1ccc(OCc2cccc(-c3nccs3)c2)cc1 | 2.11

Results, then the molecule that gave them:

logD | SMILES
3.63 | OCCc1ccc(-c2cccc(OCCc3ccccc3)c2)cc1
1.94 | OCCc1ccc(OCc2cccc(-c3ccccn3)c2)cc1
3.37 | OCCc1ccc(OCc2cccc(-c3ccccc3)c2)cc1
3.22 | OCCc1ccc(OCc2cccc(-c3cccs3)c2)cc1
3.25 | OCCc1ccc(OCc2ccccc2-c2ccccc2)cc1
